Measured values from patent publication US6858591B2, “Antibiotic AA 896 analogs” (Wyeth Holdings Corporation, priority 2001, dated 2005).
≈ marks a conversion by molar mass, not a printed value. Where two headings read alike, the source gives them in different places.

Key:
Experiment in all cases: In vitro MIC, broth dilution
Assay type in all cases: cell-based
E. coli GC 4559 = conditions: E. coli GC 4559
E. coli GC 4560 = conditions: E. coli GC 4560
E. coli GC 3226 = conditions: E. coli GC 3226
S. marcescens GC 4077 = conditions: S. marcescens GC 4077
C. albicans GC 3066 = conditions: C. albicans GC 3066
M. morganii GC 4531 = conditions: M. morganii GC 4531
K. pneumoniae GC 4534 = conditions: K. pneumoniae GC 4534
E. cloacae GC 3783 = conditions: E. cloacae GC 3783
P. aeruginosa GC 4532 = conditions: P. aeruginosa GC 4532
CNS GC 4537 = system: CNS GC 4537
Method in brief: (§1)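 MIC = lowest antibiotic concentration preventing visible growth after 18 h at 35 °C, ambient air. Inoculum 5×10^5 CFU/ml; drug tested 64-0.06 μg/ml in Mueller-Hinton II broth following NCCLS guidance.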

CNS GC 4538 = system: CNS GC 4538
Method in brief: as §1

CNS GC 4547 = system: CNS GC 4547
Method in brief: as §1

E. faecalis GC 2242 = conditions: E. faecalis GC 2242
Method in brief: as §1

E. faecalis GC 4555 = conditions: E. faecalis GC 4555
Method in brief: as §1

E. faecalis GC 842 = conditions: E. faecalis GC 842
Method in brief: as §1

S. aureus GC 1131 = conditions: S. aureus GC 1131
Method in brief: as §1

S. aureus GC 2216 = conditions: S. aureus GC 2216
Method in brief: as §1

S. aureus GC 4536 = conditions: S. aureus GC 4536
Method in brief: as §1

E. coli GC 2203 = conditions: E. coli GC 2203
P. aeruginosa GC 2214 = conditions: P. aeruginosa GC 2214
[1] = Escherichia coli, GC4559, read-out: MIC
[2] = Escherichia coli, GC4560, read-out: MIC
[3] = Escherichia coli, GC3226, read-out: MIC
[4] = Serratia marcescens, GC4077, read-out: MIC
[5] = Candida albicans, GC3066, read-out: MIC
[6] = Morganella morganii, GC4531, read-out: MIC
[7] = Klebsiella pneumoniae, GC4534, read-out: MIC
[8] = Enterobacter cloacae, GC3783, read-out: MIC
[9] = Pseudomonas aeruginosa, GC4532, read-out: MIC
[10] = Enterococcus faecalis, GC2242, read-out: MIC
[11] = Enterococcus faecalis, GC4555, read-out: MIC
[12] = Enterococcus faecalis, GC842, read-out: MIC
[13] = Staphylococcus aureus, GC1131, read-out: MIC
[14] = Staphylococcus aureus, GC2216, read-out: MIC
[15] = Staphylococcus aureus, GC4536, read-out: MIC
[16] = Escherichia coli, GC2203, read-out: MIC
[17] = Pseudomonas aeruginosa, GC2214, read-out: MIC

Structure (SMILES)	MIC (E. coli GC 4559; [1])	MIC (E. coli GC 4560; [2])	MIC (E. coli GC 3226; [3])	MIC (S. marcescens GC 4077; [4])	MIC (C. albicans GC 3066; [5])	MIC (M. morganii GC 4531; [6])	MIC (K. pneumoniae GC 4534; [7])	MIC (E. cloacae GC 3783; [8])	MIC (P. aeruginosa GC 4532; [9])	MIC (CNS GC 4537; CNS GC 4537, read-out: MIC)	MIC (CNS GC 4538; CNS GC 4538, read-out: MIC)	MIC (CNS GC 4547; CNS GC 4547, read-out: MIC)	MIC (E. faecalis GC 2242; [10])	MIC (E. faecalis GC 4555; [11])	MIC (E. faecalis GC 842; [12])	MIC (S. aureus GC 1131; [13])	MIC (S. aureus GC 2216; [14])	MIC (S. aureus GC 4536; [15])	MIC (E. coli GC 2203; [16])	MIC (P. aeruginosa GC 2214; [17])	further results
CCOC(=O)C(NCCCNC(=O)[C@H](CC(C)C)NC(=O)[C@H](CCCNC(=N)N[N+](=O)[O-])NC(=O)N[C@H](C(=O)OCc1ccccc1)C(C)C)[C@@H](OC(C)=O)[C@H]1O[C@@H](n2ccc(=O)[nH]c2=O)[C@H](OC(C)=O)[C@@H]1OC(C)=O (stereo partly drawn) [Example 42, 1-Benzyl 17-ethyl (2S,6S,9S)-16-{(R)-(acetyloxy)[(2R,3R,4R,5R)-3,4-bis(acetyloxy)-5-(2,4-dioxo-3,4-dihydro-1(2H)-pyrimidinyl)tetrahydro-2-furanyl]methyl}-6-(3-{[(2,2-dioxido-2lambda˜1˜-diazanyl)(imino)methyl]amino}propyl)-9-isobutyl-2-isopropyl-4,7,10-trioxo-3,5,8,11,15-pentaazaheptadecane-1,17-dioate]																					MIC (E. coli GC 4559): >128 µg/mL; MIC (E. coli GC 4560): 128 µg/mL (≈ 119 µM); MIC (E. coli GC 3226): 128 µg/mL (≈ 119 µM); MIC (S. marcescens GC 4077): 128 µg/mL (≈ 119 µM); MIC (C. albicans GC 3066): 128 µg/mL (≈ 119 µM); MIC (M. morganii GC 4531): 128 µg/mL (≈ 119 µM); MIC (K. pneumoniae GC 4534): 128 µg/mL (≈ 119 µM); MIC (E. cloacae GC 3783): 128 µg/mL (≈ 119 µM); MIC (P. aeruginosa GC 4532): 128 µg/mL (≈ 119 µM); MIC (CNS GC 4537; CNS GC 4537): >128 µg/mL; MIC (CNS GC 4538; CNS GC 4538): >128 µg/mL; MIC (CNS GC 4547; CNS GC 4547): 128 µg/mL (≈ 119 µM); MIC (E. faecalis GC 2242): 64 µg/mL (≈ 59.5 µM); MIC (E. faecalis GC 4555): 128 µg/mL (≈ 119 µM); MIC (E. faecalis GC 842): 128 µg/mL (≈ 119 µM); MIC (S. aureus GC 1131): >128 µg/mL; MIC (S. aureus GC 2216): >128 µg/mL; MIC (S. aureus GC 4536): >128 µg/mL; MIC (E. coli GC 2203): >128 µg/mL; MIC (P. aeruginosa GC 2214): 128 µg/mL (≈ 119 µM)
CCOC(=O)C(NCCCNC(=O)[C@@H](NC(=O)[C@H](CCCNC(=N)N)NC(=O)N[C@H](C(=O)O)C(C)C)[C@@H](O)C(C)C)[C@@H](O)[C@H]1O[C@@H](n2ccc(=O)[nH]c2=O)[C@H](OC(C)=O)[C@@H]1OC(C)=O (stereo partly drawn) [Example 43, (2S,6S,9S)-6-(3-{[Amino(imino)methyl]amino}propyl)-16-[(R)-[(2R,3R,4R,5R)-3,4-bis(acetyloxy)-5-(2,4-dioxo-3,4-dihydro-1(2H)-pyrimidinyl)tetrahydro-2-furanyl](hydroxy)methyl]-9-[(1S)-1-hydroxy-2-methylpropyl]-2-isopropyl-4,7,10,17-tetraoxo-18-oxa-3,5,8,11,15-pentaazaicosan-1-oic acid]	> 128 µg/mL	> 128 µg/mL	> 128 µg/mL	> 128 µg/mL	128 µg/mL (≈ 140 µM)	> 128 µg/mL	> 128 µg/mL	> 128 µg/mL	128 µg/mL (≈ 140 µM)	> 128 µg/mL	> 128 µg/mL	> 128 µg/mL	> 128 µg/mL	> 128 µg/mL	> 128 µg/mL	> 128 µg/mL	> 128 µg/mL	> 128 µg/mL	> 128 µg/mL	128 µg/mL (≈ 140 µM)	
COc1ccc(Cn2c(=O)ccn([C@@H]3OC([C@H](O)[C@H](NCCCNC(=O)[C@@H](NC(=O)OCc4ccccc4)[C@H](C)O)C(=O)OC(C)(C)C)[C@@H](O)[C@H]3O)c2=O)cc1 (stereo partly drawn) [Example 44, tert-Butyl (5S,12S)-12-[(R)-[(3S,4R,5R)-3,4-dihydroxy-5-(3-(4-methoxybenzyl)-2,4-dioxo-3,4-dihydro-1(2H)-pyrimidinyl)tetrahydro-2-furanyl](hydroxy)methyl]-5-[(1S)-1-hydroxyethyl]-3,6-dioxo-1-phenyl-2-oxa-4,7,11-triazatridecan-13-oate]	> 128 µg/mL	128 µg/mL (≈ 163 µM)	> 128 µg/mL	128 µg/mL (≈ 163 µM)	128 µg/mL (≈ 163 µM)	128 µg/mL (≈ 163 µM)	> 128 µg/mL	> 128 µg/mL	128 µg/mL (≈ 163 µM)	> 128 µg/mL	> 128 µg/mL	> 128 µg/mL	64 µg/mL (≈ 81.4 µM)	128 µg/mL (≈ 163 µM)	128 µg/mL (≈ 163 µM)	> 128 µg/mL	> 128 µg/mL	> 128 µg/mL	> 128 µg/mL	128 µg/mL (≈ 163 µM)	
COc1ccc(Cn2c(=O)ccn([C@@H]3OC([C@H](O)[C@H](NCCCNC(=O)[C@@H](N)[C@H](C)O)C(=O)OC(C)(C)C)[C@@H](O)[C@H]3O)c2=O)cc1 (stereo partly drawn) [Example 45, tert-Butyl (2S,3R)-2-[(3-{[(2S,3S)-2-amino-3-hydroxybutanoyl]amino}propyl)amino]-3-[(3S,4R,5R)-3,4-dihydroxy-5-(3-(4-methoxybenzyl)-2,4-dioxo-3,4-dihydro-1(2H)-pyrimidinyl)-tetrahydro-2-furanyl]-3-hydroxypropanoate]	> 128 µg/mL	> 128 µg/mL	> 128 µg/mL	> 128 µg/mL	128 µg/mL (≈ 196 µM)	128 µg/mL (≈ 196 µM)	> 128 µg/mL	> 128 µg/mL	128 µg/mL (≈ 196 µM)	> 128 µg/mL	> 128 µg/mL	> 128 µg/mL	128 µg/mL (≈ 196 µM)	> 128 µg/mL	> 128 µg/mL	> 128 µg/mL	> 128 µg/mL	> 128 µg/mL	> 128 µg/mL	128 µg/mL (≈ 196 µM)	
COc1ccc(Cn2c(=O)ccn([C@@H]3OC([C@H](O)[C@H](NCCCNC(=O)[C@@H](NC(=O)[C@H](CCCNC(=N)N[N+](=O)[O-])NC(=O)N[C@H](C(=O)OCc4ccccc4)C(C)C)C(C)O)C(=O)O)[C@@H](O)[C@H]3O)c2=O)cc1 (stereo partly drawn) [Example 47, (4S,8S,11S,18S)-18-[(R)-[(3S,4R,5R)-3,4-Dihydroxy-5-(3-(4-methoxybenzyl)-2,4-dioxo-3,4-dihydro-1(2H)-pyrimidinyl)tetrahydro-2-furanyl](hydroxy)methyl]-8-(3-{[(2,2-dioxido-2lambda˜1˜-diazanyl)(imino)methyl]amino}propyl)-11-[(1S)-1-hydroxyethyl]-4-isopropyl-3,6,9,12-tetraoxo-1-phenyl-2-oxa-5,7,10,13,17-pentaazanonadecan-19-oic acid]	> 128 µg/mL	128 µg/mL (≈ 124 µM)	> 128 µg/mL	128 µg/mL (≈ 124 µM)	128 µg/mL (≈ 124 µM)	128 µg/mL (≈ 124 µM)	> 128 µg/mL	> 128 µg/mL	128 µg/mL (≈ 124 µM)				64 µg/mL (≈ 62.1 µM)	128 µg/mL (≈ 124 µM)	128 µg/mL (≈ 124 µM)	> 128 µg/mL	> 128 µg/mL	> 128 µg/mL	> 128 µg/mL	> 128 µg/mL	MIC (CNS GC 4537): > 128 µg/mL; MIC (CNS GC 4538): > 128 µg/mL; MIC (CNS GC 4547): > 128 µg/mL
COc1ccc(Cn2c(=O)ccn([C@@H]3OC([C@H](O)[C@H](NCCCNC(=O)[C@@H](N)C(C)O)C(=O)O)[C@@H](O)[C@H]3O[Si](C)(C)C(C)(C)C)c2=O)cc1 (stereo partly drawn) [Example 48]	> 128 µg/mL	128 µg/mL (≈ 180 µM)	> 128 µg/mL	128 µg/mL (≈ 180 µM)	128 µg/mL (≈ 180 µM)	128 µg/mL (≈ 180 µM)	> 128 µg/mL	> 128 µg/mL	128 µg/mL (≈ 180 µM)	> 128 µg/mL	> 128 µg/mL	128 µg/mL (≈ 180 µM)	64 µg/mL (≈ 90.2 µM)	128 µg/mL (≈ 180 µM)	128 µg/mL (≈ 180 µM)	> 128 µg/mL	> 128 µg/mL	> 128 µg/mL	> 128 µg/mL	> 128 µg/mL	
